The values below are quoted from earlier work in patent publication US20070237820A1, “Pharmaceutical formulations containing a non-steroidal antinflammatory drug and an antiulcerative drug” (Andrx Pharmaceuticals, LLC, priority 2004, published 2007).

The conditions of series [1]: NSAIDs such as diclofenac.
For series [2] the following is noted: patients on chronic use.

On to `O=C(O)Cc1ccccc1Nc1c(Cl)cccc1Cl` [diclofenac], for which, in series [1], the “patients with side effects that require cessation of medication” value was “about 20%”.
Take `CN1C(C(=O)Nc2ccccn2)=C(O)c2ccccc2S1(=O)=O` [piroxicam]: the “patients experiencing gross bleeding and ulceration” value in series [2] is listed as “up to 4%”.
